Conditions: Liquid

CCCCCCCn1cc[n+](C)c1.O=S(=O)([N-]S(=O)(=O)C(F)(F)F)C(F)(F)F
mass density [kg/m3]
Conditions	293.15 K	303.15 K	313.15 K	323.15 K	333.15 K	343.15 K	353.15 K	393.15 K
100 kPa	1352	1342	1332	1322	1313	1304	1295	1261
1000 kPa	1353	1343	1333	1323	1314	1304	1296	1262
2000 kPa	1354	1343	1333	1324	1315	1305	1296	1263
3000 kPa	1354	1344	1334	1325	1316	1306	1297	1264
4000 kPa	1355	1345	1335	1325	1317	1307	1298	1265
5000 kPa	1356	1346	1336	1326	1317	1308	1299	1266
7500 kPa	1358	1347	1338	1328	1319	1310	1301	1268
10000 kPa	1359	1349	1339	1330	1321	1312	1303	1271
15000 kPa	1363	1353	1343	1334	1325	1316	1308	1276
20000 kPa	1366	1357	1347	1338	1329	1320	1312	1281
25000 kPa	1370	1360	1351	1342	1333	1324	1316	1285
30000 kPa	1373	1364	1355	1345	1337	1328	1320	1290

CCn1cc[n+](C)c1.O=S(=O)([N-]S(=O)(=O)C(F)(F)F)C(F)(F)F
mass density [kg/m3]
Conditions	293.15 K	303.15 K	313.15 K	323.15 K	333.15 K	343.15 K	353.15 K	393.15 K
100 kPa	1526	1514	1503	1493	1482	1472	1461	1424
1000 kPa	1526	1515	1504	1493	1483	1472	1462	1424
2000 kPa	1527	1516	1505	1494	1483	1473	1463	1425
3000 kPa	1528	1517	1506	1495	1484	1474	1464	1426
4000 kPa	1528	1517	1506	1496	1485	1475	1465	1427
5000 kPa	1529	1518	1507	1496	1486	1476	1466	1428
7500 kPa	1531	1520	1509	1498	1488	1478	1468	1431
10000 kPa	1533	1522	1511	1500	1490	1480	1470	1433
15000 kPa	1536	1525	1515	1504	1494	1484	1474	1438
20000 kPa	1540	1529	1518	1508	1498	1488	1478	1443
25000 kPa	1543	1532	1522	1512	1502	1492	1483	1448
30000 kPa	1547	1536	1526	1516	1506	1496	1487	1453

CCCCCCCCn1cc[n+](C)c1.O=S(=O)([N-]S(=O)(=O)C(F)(F)F)C(F)(F)F
mass density [kg/m3]
Conditions	293.15 K	303.15 K	313.15 K	323.15 K	333.15 K	343.15 K	353.15 K	393.15 K
100 kPa	1328	1315	1305	1296	1286	1278	1269	1236
1000 kPa	1328	1316	1306	1296	1287	1278	1270	1237
2000 kPa	1329	1317	1307	1297	1288	1279	1270	1238
3000 kPa	1330	1317	1307	1298	1289	1280	1271	1239
4000 kPa	1330	1318	1308	1299	1289	1281	1272	1240
5000 kPa	1331	1319	1309	1299	1290	1282	1273	1241
7500 kPa	1333	1321	1311	1301	1292	1284	1275	1243
10000 kPa	1334	1322	1312	1303	1294	1286	1277	1246
15000 kPa	1338	1326	1316	1307	1298	1290	1282	1251
20000 kPa	1341	1329	1320	1311	1302	1294	1286	1256
25000 kPa	1345	1333	1324	1315	1306	1298	1290	1261
30000 kPa	1348	1337	1327	1319	1310	1303	1294	1266

CCn1cc[n+](C)c1.F[B-](F)(F)F [1-ethyl-3-methylimidazolium tetrafluoroborate]
mass density [kg/m3]
Conditions	293.15 K	303.15 K	313.15 K	323.15 K	333.15 K	343.15 K	353.15 K	393.15 K
100 kPa	1305	1296	1288	1280	1272	1264	1257	1229
1000 kPa	1305	1296	1288	1280	1272	1265	1257	1230
2000 kPa	1306	1297	1289	1281	1273	1265	1258	1230
3000 kPa	1306	1297	1289	1281	1273	1266	1258	1231
4000 kPa	1307	1298	1290	1282	1274	1266	1259	1231
5000 kPa	1307	1298	1290	1282	1274	1267	1259	1232
7500 kPa	1308	1299	1291	1283	1275	1268	1261	1233
10000 kPa	1309	1300	1292	1284	1277	1269	1262	1235
15000 kPa	1311	1303	1295	1287	1279	1272	1264	1238
20000 kPa	1313	1305	1297	1289	1281	1274	1267	1240
25000 kPa	1316	1307	1299	1291	1284	1277	1269	1243
30000 kPa	1318	1309	1301	1294	1286	1279	1272	1246

Source: the NIST ThermoML archive (doi:10.1021/je700205n)
